From patent US5102871A, “Nutrient composition” (Kyowa Hakko Kogyo Co., Ltd., priority 1989, dated 1992)
Bridge positions count the residues as written; N and C are the ends. Peptide text beside a SMILES is read from it. I, II: the chains in the order shown.

Columns and labels:
[1] = In vitro hydrolysis in mouse plasma; format: in vitro ADME, C3H/He mouse; conditions: 37° C., 30 minutes; for remaining at 0.5 h, 2.46 mM: male, C3H/He mouse plasma, mean of five mice, read-out: Residual amount in plasma (%)
Method: To 50 μl of plasma collected and prepared from C3H/He mouse (6 weeks of age, male, weighing 22 g) was added 5 μl of a 27.1 mM solution of a peptide in physiological saline, followed by reaction at 37° C. for 30 minutes.

[2] = Stability on heating in jelly-like nutrient preparation (Example 3); format: physicochemical; conditions: 100° C. for 30 minutes, Example 3 composition
[3] = In vitro hydrolysis in human plasma; format: in vitro ADME; conditions: 37° C., 30 minutes; for remaining at 0.5 h, 2.18 mM: read-out: Residual amount in plasma (%)
Method: It was thus recognized that there was a clear difference between these peptides with respect to utilization in vivo.
To 100 μl of plasma collected and prepared from human was added 10 μl of a 24 mM solution of a peptide in physiological saline. After reaction at 37° C. for 30 minutes, the amount of the remaining peptide was determined.

Solubility in water = format: physicochemical; conditions: pH 6.5, 25° C.
From the text: The solubility of γ-Glu-Cys-Cys and (γ-Glu-Cys)2 was compared with that of cystine and known cystine-containing peptides.

[4] = Uptake by mouse kidney after tail vein administration; format: in vivo, C3H/He mice; conditions: 250 μmoles/kg tail vein, mean (SEM on next line)
Method: Uptake of γ-Glu-Cys-Cys and (γ-Glu-Cys)2 by mouse kidney was compared with that of (Ala-Cys)2 according to the test method described below.
Physiological saline solutions of γ-Glu-Cys-Cys, (γ-Glu-Cys)2 and (Ala-Cys)2 were administered respectively to groups of C3H/He mice (6 weeks of age, male, weighing 22 g) through the tail vein in a dose of 250 μmoles/kg body weight, and the kidney was excised 1, 5 and 20 minutes after the administration, followed by determination of glutamic acid, alanine and cystine in the kidney.

[5] = biological target: T1, γ-glutamyltransferase prepared from swine kidney (Sus scrofa, UniProt P20735); test: Hydrolysis by γ-glutamyltransferase; format: biochemical; conditions: 5 mM peptide, Tris-hydrochloride buffer pH 7, 37° C., 120 minutes
T1 construct: γ-glutamyltransferase prepared from swine kidney; from tissue; host or cells: swine kidney
Method: It was thus recognized that there was a difference between these peptides with respect to utilization in vivo.
A peptide was dissolved in Tris-hydrochloride buffer solution (pH 7) in a concentration of 5 mM and γ-glutamyltransferase prepared from swine kidney was added to the solution. After reaction at 37° C. for 120 minutes, the amount of the remaining peptide was determined.

[6] = 25° C.; background statement; cited from earlier work
[7] = administered subcutaneously to mice; Anderson and Meister 1983; cited from earlier work
[8] = Stability in solution on heat treatment and on standing; format: physicochemical; conditions: 10 mM

T1 sequence (P20735 1-379 limits assumed): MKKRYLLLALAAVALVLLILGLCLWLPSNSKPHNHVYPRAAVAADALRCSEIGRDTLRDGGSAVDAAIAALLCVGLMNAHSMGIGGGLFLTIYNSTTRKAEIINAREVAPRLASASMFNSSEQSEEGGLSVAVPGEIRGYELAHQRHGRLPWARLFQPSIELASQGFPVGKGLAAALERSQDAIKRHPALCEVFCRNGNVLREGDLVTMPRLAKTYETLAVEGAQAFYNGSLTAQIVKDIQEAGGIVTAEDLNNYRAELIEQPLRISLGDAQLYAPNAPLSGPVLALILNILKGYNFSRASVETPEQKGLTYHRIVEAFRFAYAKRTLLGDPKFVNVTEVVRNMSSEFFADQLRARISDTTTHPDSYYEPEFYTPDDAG
T1 sequence (P20735 380-568 limits assumed): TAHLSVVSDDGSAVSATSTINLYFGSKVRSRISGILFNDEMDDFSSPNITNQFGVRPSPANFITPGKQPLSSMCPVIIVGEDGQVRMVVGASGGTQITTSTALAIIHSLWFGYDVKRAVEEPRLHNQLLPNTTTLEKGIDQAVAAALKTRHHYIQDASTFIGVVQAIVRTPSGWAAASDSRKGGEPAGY

## N[C@@H](CCC(=O)N[C@@H](CSSC[C@H](N)C(=O)O)C(=O)O)C(=O)O [γ-Glu-Cys-Cys]
[1]
  remaining at 0.5 h, 2.46 mM: 53%
  Hydrolysis in mouse plasma: hydrolyzed in plasma only with difficulty
[2]
  Stability under heating of the jelly-like preparation: stably maintained
[3]
  Hydrolysis in human plasma: hydrolyzed in plasma only with difficulty
  remaining at 0.5 h, 2.18 mM: 67%
Solubility in water
  Solubility in 1000 ml of water: > 70 g
[4]; 0 min after administration
  Glu (glutamic acid) in kidney: 5.54 μmole/g wet weight of kidney
[4]; 1 min after administration
  Glu (glutamic acid) in kidney: 13.09 μmole/g wet weight of kidney
[4]; 5 min after administration
  Glu (glutamic acid) in kidney: 20.32 μmole/g wet weight of kidney
[4]; 20 min after administration
  Glu (glutamic acid) in kidney: 15.1 μmole/g wet weight of kidney

## C[C@H](N)C(=O)N[C@@H](CSSC[C@H](NC(=O)[C@H](C)N)C(=O)O)C(=O)O [(Ala-Cys)2, bis-α-L-alanyl-L-cystine, reference compound] (I: H-Ala-Cys-OH / II: H-Ala-Cys-OH; disulfide I:2-II:2)
[5]
  Hydrolysis by γ-glutamyltransferase: not hydrolyzed
[1]
  remaining at 0.5 h, 2.46 mM: 0%
[3]
  remaining at 0.5 h, 2.18 mM: 26%
Solubility in water
  Solubility in 1000 ml of water: > 50 g
[4]; 0 min after administration
  Ala (alanine) in kidney: 2.33 μmole/g wet weight of kidney
[4]; 1 min after administration
  Ala (alanine) in kidney: 2.87 μmole/g wet weight of kidney
[4]; 5 min after administration
  Ala (alanine) in kidney: 2.59 μmole/g wet weight of kidney
[4]; 20 min after administration
  Ala (alanine) in kidney: 2.16 μmole/g wet weight of kidney

## N[C@@H](CSSC[C@H](N)C(=O)O)C(=O)O [Cystine, L-cystine]
[6]
  solubility in water: less than 0.11 g/l
Solubility in water
  Solubility in 1000 ml of water: 0.1 g

## N[C@@H](CC(=O)O)C(=O)N[C@@H](CSSC[C@H](NC(=O)[C@@H](N)CC(=O)O)C(=O)O)C(=O)O [(Asp-Cys)2, N,N'-bis-α-aspartyl-L-cystine] (I: H-Asp-Cys-OH / II: H-Asp-Cys-OH; disulfide I:2-II:2)
[5]
  Hydrolysis by γ-glutamyltransferase: not hydrolyzed
[3]
  remaining at 0.5 h, 2.18 mM: 30%
Solubility in water
  Solubility in 1000 ml of water: > 50 g

## N[C@@H](CCC(=O)N[C@@H](CSSC[C@H](NC(=O)CC[C@H](N)C(=O)O)C(=O)O)C(=O)O)C(=O)O [(γ-Glu-Cys)2, L-glutamyl-L-cysteine disulfide]
[5]
  Hydrolysis by γ-glutamyltransferase: almost completely hydrolyzed
[7]
  Utilization in the synthesis of kidney glutathione: can be utilized in the synthesis of kidney glutathione
[1]
  remaining at 0.5 h, 2.46 mM: 84%
  Hydrolysis in mouse plasma: hydrolyzed in plasma only with difficulty
[3]
  Hydrolysis in human plasma: hydrolyzed in plasma only with difficulty
  remaining at 0.5 h, 2.18 mM: 85%
Solubility in water
  Solubility in 1000 ml of water: > 70 g
[8]; pH 6.5, 40° C. for 60 days
  Decomposition on standing: not decomposed
[8]; pH 6.5, 110° C. for 20 minutes
  Decomposition by heat treatment: hardly decomposed
[4]; 0 min after administration
  Glu (glutamic acid) in kidney: 5.54 μmole/g wet weight of kidney
[4]; 1 min after administration
  Glu (glutamic acid) in kidney: 14.82 μmole/g wet weight of kidney
[4]; 5 min after administration
  Glu (glutamic acid) in kidney: 22.5 μmole/g wet weight of kidney
[4]; 20 min after administration
  Glu (glutamic acid) in kidney: 18.14 μmole/g wet weight of kidney

## C[C@H](NC(=O)[C@@H](N)CSSC[C@H](N)C(=O)N[C@@H](C)C(=O)O)C(=O)O [(Cys-Ala)2, L-cysteinyl-bis-L-alanine] (I: H-Cys-Ala-OH / II: H-Cys-Ala-OH; disulfide I:1-II:1)
Solubility in water
  Solubility in 1000 ml of water: 8.1 g

## N[C@@H](CS)C(=O)NCCCC[C@H](NC(=O)[C@@H](N)CS)C(=O)O [Cys-Lys(Cys), N^2 -cysteinyl-N^6 -L-cysteinyl-L-lysine] (H-Cys-Lys(Cys)-OH)
Solubility in water
  Solubility in 1000 ml of water: > 50 g

## NCC(=O)N[C@@H](CSSC[C@H](NC(=O)CN)C(=O)O)C(=O)O [(Gly-Cys)2, bis-glycyl-L-cystine, reference compound] (I: H-Gly-Cys-OH / II: H-Gly-Cys-OH; disulfide I:2-II:2)
[3]
  remaining at 0.5 h, 2.18 mM: 35%
Solubility in water
  Solubility in 1000 ml of water: > 50 g
